# Measurements published in patent US11261429B2, “Enriched and expanded human cord blood stem cells for treatment of hematological disorders” (ICAHN SCHOOL OF MEDICINE AT MOUNT SINAI, priority 2013, dated 2022).
# Values joined by “and” are separate entries in the source; they are usually repeats but may differ in a detail not shown here. Equal values may be shown once.
# Key:
# NSG mice [1] = format: in vivo
# Description: As described previously, NSG mice were sublethally irradiated with 300 cGy 4 hours prior to the infusion of PCs (2×10^5), and CD34+ cells re-isolated after a week of culture under control conditions or cultures containing VPA in the presence or absence of cytokines were injected into NSG mice via the tail vein (Milhem et al., “Modification of Hematopoietic Stem Cell Fate by 5aza 2′deoxycytidine and Trichostatin A,” Blood 103:4102-4110 (2004); Araki et al., “Expansion of Human Umbilical Cord Blood SCID-Repopulating Cells Using Chromatin-Modifying Agents,” Exp. Hematol. 34:140-149 (2006); Araki et al., “Chromatin-Modifying Agents Permit Human Hematopoietic Stem Cells to Undergo Multiple Celt Divisions While Retaining Their Repopulating Potential,” Blood 109:3570-3578 (2007), which are hereby incorporated by reference in their entirety). […] BM cells from each mouse were analyzed for the presence of cells expressing human CD45-PECy7 or APC, CD34-APC or FITC, CD36-APC, CD33-PECy7, CD14-FITC, CD19-PE, CD41-FITC, CD71-FITC, and glycophorin A-PE (GPA-PE). The presence of at least 0.1% human CD45+ cells in the marrow of each recipient mouse was considered indicative of donor human hematopoietic engraftment (Milhem et al., “Modification of Hematopoietic Stem Cell Fate by 5aza 2′deoxycytidine and Trichostatin A,” Blood 103:4102-4110 (2004); Araki et al., “Expansion of Human Umbilical Cord Blood SCID-Repopulating Cells Using Chromatin-Modifying Agents,” Exp. Hematol. 34:140-149 (2006); Araki et al., “Chromatin-Modifying Agents Permit Human Hematopoietic Stem Cells to Undergo Multiple Cell Divisions While Retaining Their Repopulating Potential,” Blood 109:3570-3578 (2007); Chaurasia et al., “Chromatin-Modifying Agents Promote the Ex vivo Production of Functional Human Erythroid Progenitor Cells,” Blood 117:4632-4641 (2011), which are hereby incorporated by reference in their entirety). BM cells (2×10^6) from the primary recipient NSG mice were reinfused into sublethally irradiated secondary NSG recipient mice. Mice were sacrificed 15-16 weeks after transplantation, and BM cells were stained with mAbs and analyzed by flow cytometry for evidence of human chimerism as described above.
# HDAC5 = experiment: HDAC protein levels in CB-MNCs, Western blot densitometry; format: cell-based, human; settings: 24 hr, SCR 8 μM, C433 80 μM, VPA 1.25 mM
# Source text: (§1) Cellular proteins were separated by SDS-PAGE using Novex (Invitrogen) and transferred by iBlot (Invitrogen). The membranes were probed with mAbs against individual histone deacetylases (HDAC1, HDAC2, HDAC3, HDAC4, HDAC5, HDAC6, and β-actin; Cell Signaling Technology) and developed using a chemiluminescence system with HRP-conjugated secondary antibodies (Amersham Biosciences) according to the manufacturer's instructions.
# NSG mice [2] = experiment: Limiting dilution analysis of SCID-repopulating cells (SRC) in NSG mice; format: in vivo; settings: for No. of mice with human cell chimerism/total number of mice transplanted: 12 to 13 weeks
# Description: The frequency of human SRCs in PCs and the progeny of an equivalent number of CD34+ cells that were expanded under control conditions or in the presence of VPA were analyzed by limiting dilution analysis as described previously (Boitano et al., “Aryl Hydrocarbon Receptor Antagonists Promote the Expansion of Human Hematopoietic Stem Cells,” Science 329:1345-1348 (2010), which is hereby incorporated by reference in its entirety). Increasing numbers of PCs (50, 250, 500, 2,500, 5,000) or the progeny of an equivalent number of PCs cultured with VPA for 7 days or under control conditions were infused into NSG mice (n=111). The data from the limiting dilution experiments were pooled and analyzed by applying Poisson statistics to the single-hit model (n=111). The frequency was calculated using L-Calc software (StemCell Technologies Inc.) and plotted using ELDA software (bioinf.wehi.edu.au/software/elda/), available at the Walter and Eliza Hall Bioinformatics Institute of Medical Research. The tog fraction of non-responding values was converted to the percentage of negative mice using the following formula: percentage of negative mice=e log fraction.
# HDAC6 = experiment: HDAC protein levels in CB-MNCs, Western blot densitometry; format: cell-based, human; settings: 24 hr, SCR 8 μM, C433 80 μM, VPA 1.25 mM
# Source text: as §1
# ALDH activity = ALDH activity (Aldefluor) in expanded CB CD34+ cells; format: cell-based, human; settings: cytokines, 7 days
# Source text: Increased ALDH activity is a characteristic of primitive hematopoietic cells and cancer stem cells (Hess et al., Functional Characterization of Highly Purified Human Hematopoietic Repopulating Cells Isolated According to Aldehyde Dehydrogenase Activity,” Blood 104:1648-1655 (2004); Lioznov et al., “Aldehyde Dehydrogenase Activity as a Marker for the Quality of Hematopoietic Stem Cell Transplants,” Bone Marrow Transplant 35:909-914 (2005); Storms et al., “Distinct Hematopoietic Progenitor Compartments are Delineated by the Expression of Aldehyde Dehydrogenase and CD34,” Blood 106:95-102 (2005); Aguila et al., “SALL4 is a Robust Stimulator for the Expansion of Hematopoietic Stem Cells,” Blood 118:576-585 (2011), which are hereby incorporated by reference in their entirety). To identify cell populations with high ALDH activity, an Aldefluor kit (StemCell Technologies Inc.) was used according to the manufacturer's instructions, Cells (1×10^6/ml) were suspended in assay buffer, then half of the cells were added to the Aldefluor substrate (test sample) and the remaining half was added to DEAB inhibitor (control sample). The test and control samples were incubated for 40 minutes at 37° C. Cells were subsequently stained with CD34-APC and/or CD117-PE mAbs or an isotype-matched IgG for an additional 20 minutes. Cells were washed and analyzed by a BD FACSCanto II Flow Cytometer.
# CD34+CD90+ cells = experiment: Cell cycle analysis by BrdU labeling; format: cell-based, human
# Description: The cell cycle status of the cultured CD34+CD90+ cells was assessed using the FITC-BrdU Kit (BD Pharmingen) according to the manufacturer's instructions. CB CD34+ cells cultured for 7 days under control conditions in the presence of VPA were subsequently pulsed with BrdU for 2.5 hours. […] After permeabilization, cells were treated with 30 μg of DNAse for 30 minutes at 37° C. and then stained with an FITC-conjugated anti-BrdU antibody and 7AAD. The cell cycle status of CD34+CD90+ gated cells was then documented using a FAC-SCanto II Flow Cytometer with FACSDiva software (BD Biosciences).
# [3] = VPA alone (no cytokines), SF, 12-13 weeks
# [4] = cells cultured with cytokines plus VPA, SF, 13-14 weeks after transplantation
smiles,measurement,setting,value
"CCCC(CCC)C(=O)O [VPA, valproic acid]","% Human Cell Engraftment in Primary NSG Mice, CD14",NSG mice [1]; [3],2.1 ± 0.2 %
same,"% Human Cell Engraftment in Primary NSG Mice, CD19",NSG mice [1]; [3],1.9 ± 1.1%
same,"% Human Cell Engraftment in Primary NSG Mice, CD33",NSG mice [1]; [3],3.5 ± 0.6 %
same,"% Human Cell Engraftment in Primary NSG Mice, CD34",NSG mice [1]; [3],1.6 ± 0.4 %
same,"% Human Cell Engraftment in Primary NSG Mice, CD41",NSG mice [1]; [3],0.90 ± 0.6%
same,"% Human Cell Engraftment in Primary NSG Mice, CD45",NSG mice [1]; [3],12.5%±5.0% and 12.5 ± 2.2%
same,"% Human Cell Engraftment in Primary NSG Mice, GPA",NSG mice [1]; [3],9.8 ± 0.8%
same,CD45+CD34+ cells in marrow of primary NSG mice,NSG mice [1]; [4],13.0%±8.7%
same,human CD45+ cell chimerism in marrow of primary NSG mice,NSG mice [1]; [4],32.2%±11.3% and 32.3±10.2%
same,donor-derived CD34+ cells coexpressing CD184 in marrow,"NSG mice [1]; cells cultured with cytokines plus VPA, SF, primary NSG mice",9.9%±9.6%
same,blood cancer or teratomas in primary or secondary recipients,"NSG mice [1]; mouse, in vivo",None of the primary or secondary recipients of marrow cells receiving VPA-treated grafts developed evidence of blood cancer or developed teratomas
same,HDAC5 expression relative to b-ACTIN (%),HDAC5,21.4 ± 10.7%
same,No. of SRCs generated per 1 × 10^6 CD34+ starting cells,"NSG mice [2]; Poisson statistics, VPA 7 days","32,258"
same,increase in the number of SRCs compared with cells cultured under control conditions,NSG mice [2]; VPA treatment versus control cultures,299 fold
same,increase in the number of SRCs compared with PCs,NSG mice [2]; VPA treatment versus primary CB CD34+ cells,36 fold
same,No. of mice with human cell chimerism/total number of mice transplanted,NSG mice [2]; progeny of 50 CD34+ cells,8/10
same,No. of mice with human cell chimerism/total number of mice transplanted,NSG mice [2]; progeny of 250 CD34+ cells,10/10
same,No. of mice with human cell chimerism/total number of mice transplanted,NSG mice [2]; progeny of 500 CD34+ cells,8/8
same,No. of mice with human cell chimerism/total number of mice transplanted,"NSG mice [2]; progeny of 2,500 CD34+ cells",7/7
same,No. of mice with human cell chimerism/total number of mice transplanted,"NSG mice [2]; progeny of 5,000 CD34+ cells",7/7
same,HDAC6 expression relative to b-ACTIN (%),HDAC6,54.2 ± 7.9%
same,Frequency of ALDH+ cells,ALDH activity; SC cultures,41.7 ± 3.3^A %
same,Frequency of ALDH+CD34+ cells,ALDH activity; SC cultures,26.1 ± 5.5^A %
same,Frequency of ALDH+CD34+CD117+ cells,ALDH activity; SC cultures,29.4 ± 1.4^A %
same,Frequency of ALDH+ cells,ALDH activity; SF cultures,86.6 ± 7.4^A %
same,Frequency of ALDH+CD34+ cells,ALDH activity; SF cultures,71.1 ± 3.1^A %
same,Frequency of ALDH+CD34+CD117+ cells,ALDH activity; SF cultures,51.3 ± 4.0^A %
same,"percent CD34+CD90+ cells, flow cytometric analysis (FIG. 4A)","CD34+CD90+ cells; SF culture with VPA 7 days, one of 3 representative experiments",82.9%
same,CD34+CD90+ cells in G0/G1,"CD34+CD90+ cells; day 7, BrdU pulse 2.5 hours",23.2%±13.8%
same,CD34+CD90+ cells in G2/M,"CD34+CD90+ cells; day 7, BrdU pulse 2.5 hours",18.0%±1.2%
same,CD34+CD90+ cells in S phase,"CD34+CD90+ cells; day 7, BrdU pulse 2.5 hours",29.4%±7.9%
